The values below come from ChEMBL document CHEMBL1201862, “PubChem BioAssay data set” (2004).

The structures appear in SMILES notation.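 Following 48 hours of exposure in 96-well plates, responses at five concentrations were used to interpolate endpoints linearly. GI50 marks 50% less growth.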 Active and inactive are the calls of the source. No stated cut-off is given here; in the data, active = GI50 up to about 1.1 µM and inactive = higher.

Common to all, as to experiment: growth of human tumour cells (NCI), 48 h
The test system of test [1] is A549.
Test [2] relates to ACHN.
Test [3] relates to DU-145.
Test [4] relates to EKVX.
For test [5], the system named is HCC 2998.
Test [6] deals with HCT-116.
Test [7] concerns HL-60.
For test [8], the system named is HT-29.
Test [9] has as its system Hs-578T.
Test [10] has as its system IGROV-1.
Test [11] concerns M14.
The subject of test [12] is MCF7.
The test system of test [13] is MDA-N.
For test [14], the system named is NCI-H23.
Test [15] concerns SF-295.
The test system of test [16] is SK-MEL-2.
The test system of test [17] is SK-MEL-5.
The subject of test [18] is UACC-62.
The test system of test [19] is SK-OV-3.
For test [20], the system named is T47D.

Consider `CC(C)OC(=O)C1=C2c3ncccc3C(=O)N2[C@@H](Cl)[C@H](Cl)[C@H]1Cl`, for which the GI50 in [1] is > 100 µM (inactive); in test [2] it was > 100 µM (inactive); in test [3], > 100 µM (inactive); in [4], > 100 µM (inactive); in [5], > 100 µM (inactive); in [6] it was 50.6 µM (inactive). Further, the GI50 was 38.2 µM (inactive) in [7]; > 100 µM (inactive) in test [8]; > 100 µM (inactive) in test [9]; 31.1 µM (inactive) in [10]; > 100 µM (inactive) in test [11]; 39.1 µM (inactive) in test [12]. For the same compound, the GI50 is 50.9 µM (inactive) in [13]; 46.2 µM (inactive) in test [14]; > 100 µM (inactive) in test [15]; > 100 µM (inactive) in test [16]; 83 µM (inactive) in test [17]; > 100 µM (inactive) in [18].
For the compound `[O-][S+](Nc1ccccc1)c1ccccc1Oc1ccccc1` (stereo not drawn), the GI50 was 27 µM (inactive) in test [1]; 46 µM (inactive) in [2]; > 100 µM (inactive) in test [3]; 26 µM (inactive) in test [4]; 24.3 µM (inactive) in test [5]; 34.1 µM (inactive) in [6]. For the same compound, the GI50 in test [7] is 25.5 µM (inactive); in test [8] it was 60.5 µM (inactive); in test [9] it was 2.84 µM (inactive); in test [10] it was 2.62 µM (inactive); in test [11], 24.5 µM (inactive); in test [12] it was 60 µM (inactive). The GI50 was 57.1 µM (inactive) in [13], 29.8 µM (inactive) in test [14], 28.2 µM (inactive) in test [15] and 30.5 µM (inactive) in test [17].
With `CC(C)CCn1nc(N)c2nc3ccccc3nc21`, the GI50 in test [1] was > 100 µM (inactive); in [2], 41.3 µM (inactive); in [4], > 100 µM (inactive); in [5], > 100 µM (inactive); in test [6] it was 56 µM (inactive); in test [7] it was 41.6 µM (inactive). Moreover, the GI50 in [8] is 64.7 µM (inactive); in test [9], > 100 µM (inactive); in [10] it was > 100 µM (inactive); in test [11], > 100 µM (inactive); in test [12], 72.8 µM (inactive); in test [13], > 100 µM (inactive). Besides, the GI50 in test [14], in test [15], in test [16], in test [19] and in test [18] was > 100 µM (inactive) throughout.
As for `O=C(N/N=C/c1ccc(Cl)cc1)c1cc(I)cc(I)c1O`, the GI50 in test [1], in test [2], in test [3], in test [4], in [6] and in test [7] was > 100 µM (inactive) each time. The GI50 in test [8], in test [10], in test [11], in test [12], in [13] and in test [14] was > 100 µM (inactive) each time. The GI50 in test [15], in test [16], in test [17], in test [19] and in test [20] was > 100 µM (inactive) each time.
Consider `Oc1cccc(Nc2cc(O)nc(O)n2)c1`, for which the GI50 in test [1], in test [2], in [4], in [5], in test [6] and in [7] was > 100 µM (inactive) each time. The GI50 in test [8], in [9], in test [10], in test [11], in [13] and in test [14] was > 100 µM (inactive) throughout. The GI50 in test [15] is > 100 µM (inactive); in [16] it was > 100 µM (inactive); in test [17], > 100 µM (inactive); in [19] it was 67.9 µM (inactive); in [20] it was > 100 µM (inactive); in test [18], > 100 µM (inactive).
As to `Nc1ccc(-c2nc3ccc(F)cc3s2)cc1I`, the GI50 is > 100 µM (inactive) in test [1]; > 100 µM (inactive) in test [2]; > 100 µM (inactive) in test [3]; > 51.6 µM (inactive) in [4]; 0.121 µM (active) in test [5]; < 0.01 µM (active) in test [6]. Further, the GI50 is 56.1 µM (inactive) in test [8]; 22.2 µM (inactive) in test [9]; < 0.01 µM (active) in test [10]; > 100 µM (inactive) in test [11]; < 0.01 µM (active) in test [12]; > 100 µM (inactive) in test [13]. Also, the GI50 in test [14] is > 100 µM (inactive); in [15], > 71 µM (inactive); in test [16] it was > 100 µM (inactive); in [17], > 74.6 µM (inactive); in test [19], 97.3 µM (inactive); in test [18], > 79.6 µM (inactive).
For the compound `COc1ccc(NC(=S)Nc2cc(C)ccn2)cc1`, the GI50 in test [2], in [3], in test [4], in [5], in [6] and in [7] was > 100 µM (inactive) in each case. Besides, the GI50 in [8], in test [9], in test [10], in [12], in test [14] and in test [16] was > 100 µM (inactive) throughout. Further, the GI50 in test [17], in test [20] and in [18] was > 100 µM (inactive) throughout.
For `O=[N+]([O-])c1ccc2c(c1)Sc1ccccc1N2CCCCCl`, the GI50 in [1], in test [2], in test [3], in [4], in [5] and in test [6] was > 100 µM (inactive) throughout. The GI50 in [7], in test [8], in [9], in test [10], in test [12] and in test [13] was > 100 µM (inactive) each time. Moreover, the GI50 in test [14], in [15] and in test [17] was > 100 µM (inactive) in each case.
Regarding `c1ccc2c(c1)Sc1ccccc1N2CC1CN2CCC1CC2` (stereo not drawn) [MEQUITAZINE], the GI50 in [1] is 9.71 µM (inactive); in [2] it was 10.3 µM (inactive); in [3] it was 6.73 µM (inactive); in test [4], 11.4 µM (inactive); in test [5], 1.29 µM (inactive); in [6], 3.52 µM (inactive). The GI50 in [7] is 3.57 µM (inactive); in test [8] it was 3.01 µM (inactive); in [9] it was 8.2 µM (inactive); in [10], 11.2 µM (inactive); in test [11] it was 1.87 µM (inactive); in test [12] it was 3.4 µM (inactive). Also, the GI50 in test [14] was 13 µM (inactive); in test [15], 15.7 µM (inactive); in [16] it was 3.32 µM (inactive); in [17] it was 3.2 µM (inactive); in [19] it was 12.5 µM (inactive); in test [20], 2.63 µM (inactive). The GI50 in test [18] is 3.13 µM (inactive).
